Results from ChEMBL document CHEMBL1201862, “PubChem BioAssay data set” (2004).
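Each compound was tested at five concentrations against cells in 96-well plates for 48 hours. GI50 is the concentration that inhibits growth by half.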 The source made the active and inactive calls. Cut-off read from the data, not from the text of the source: active = GI50 up to about 1.1 µM and inactive = higher.

What was measured:
Test in all cases: growth of human tumour cells (NCI), 48 h
CCRF-CEM = tested on: CCRF-CEM
SF-268 = tested on: SF-268
UO-31 = tested on: UO-31
EKVX = tested on: EKVX
U-251 = tested on: U-251
CAKI-1 = tested on: CAKI-1
786-0 = tested on: 786-0
SNB-75 = tested on: SNB-75
SW-620 = tested on: SW-620
SR = tested on: SR
SK-OV-3 = tested on: SK-OV-3
HCT-116 = tested on: HCT-116
ACHN = tested on: ACHN
MDA-MB-231 = tested on: MDA-MB-231
NCI-H226 = tested on: NCI-H226
OVCAR-4 = tested on: OVCAR-4
M14 = tested on: M14
HL-60 = tested on: HL-60
HOP-92 = tested on: HOP-92
A498 = tested on: A498

Measured: GI50

COC(=O)C1CCCN1C(=O)OC(C)(C)C (stereo not given)
inactive: CCRF-CEM > 100 µM | SF-268 65.3 µM | UO-31 > 100 µM | EKVX > 100 µM | U-251 > 100 µM | CAKI-1 > 100 µM | 786-0 > 100 µM | SNB-75 > 100 µM | SW-620 > 100 µM | SR > 100 µM | SK-OV-3 > 100 µM | HCT-116 > 100 µM | ACHN > 100 µM | MDA-MB-231 > 100 µM | NCI-H226 > 100 µM | OVCAR-4 > 100 µM

CN(NC(=O)/C(=C/c1ccc(Cl)cc1)NC(=O)c1ccccc1)c1cn[nH]c(=O)c1Cl
inactive: CCRF-CEM 30 µM | SF-268 > 100 µM | UO-31 > 100 µM | M14 > 100 µM | EKVX 68.5 µM | U-251 40.9 µM | CAKI-1 > 100 µM | 786-0 > 100 µM | SNB-75 59 µM | HL-60 12.7 µM | SW-620 > 100 µM | HOP-92 > 100 µM | SR > 100 µM | SK-OV-3 > 100 µM | HCT-116 > 100 µM | ACHN > 100 µM | MDA-MB-231 > 100 µM | NCI-H226 31.1 µM | OVCAR-4 > 100 µM

CC(C)C(=O)OCN(C)c1nc(N(C)COC(=O)C(C)C)nc(N(C)COC(=O)C(C)C)n1
inactive: CCRF-CEM 22.3 µM | SF-268 > 10 µM | UO-31 22.2 µM | M14 17 µM | A498 36 µM | EKVX > 100 µM | CAKI-1 34.5 µM | 786-0 28.5 µM | SNB-75 17.8 µM | HL-60 22.3 µM | SW-620 21.6 µM | SR 22.8 µM | HCT-116 32.1 µM | ACHN 32 µM | MDA-MB-231 25.2 µM | NCI-H226 41.4 µM | OVCAR-4 23.8 µM

Cc1nn(C(=O)c2ccccc2O)c2c1C(c1ccccc1O)SC(=N)N2 (stereo not given)
active: MDA-MB-231 0.649 µM
inactive: CCRF-CEM 3.1 µM | SF-268 6.81 µM | M14 4.54 µM | EKVX 9.27 µM | U-251 4.39 µM | CAKI-1 8.07 µM | 786-0 4.53 µM | SNB-75 4.06 µM | HL-60 2.22 µM | SW-620 6.11 µM | HOP-92 > 10 µM | SR 1.95 µM | SK-OV-3 5.02 µM | HCT-116 4.12 µM | ACHN 3.44 µM | NCI-H226 1.49 µM | OVCAR-4 2.53 µM

O=CN1CCN(c2ccc3ccc(O)nc3n2)CC1
inactive: CCRF-CEM > 100 µM | SF-268 69.8 µM | UO-31 > 100 µM | M14 > 100 µM | EKVX > 100 µM | U-251 > 100 µM | CAKI-1 > 100 µM | 786-0 > 100 µM | SNB-75 > 100 µM | HL-60 > 100 µM | SW-620 > 100 µM | HOP-92 > 100 µM | SR > 100 µM | SK-OV-3 > 100 µM | HCT-116 > 100 µM | ACHN > 100 µM | MDA-MB-231 > 100 µM | NCI-H226 > 100 µM | OVCAR-4 > 100 µM

O=C(O)c1cc(Sc2ccc([N+](=O)[O-])c(C(=O)O)c2)ccc1[N+](=O)[O-]
inactive: CCRF-CEM > 100 µM | SF-268 > 100 µM | UO-31 > 100 µM | M14 > 100 µM | A498 > 100 µM | EKVX > 100 µM | U-251 > 100 µM | 786-0 > 100 µM | HL-60 > 100 µM | SW-620 > 100 µM | HOP-92 > 100 µM | SK-OV-3 > 100 µM | HCT-116 > 100 µM | ACHN > 100 µM | MDA-MB-231 > 100 µM | NCI-H226 > 100 µM | OVCAR-4 > 100 µM

Cc1nc(C)c(C(=O)NNC(=O)C[N+](C)(C)C)cc1C(=O)NNC(=O)C[N+](C)(C)C
inactive: SF-268 > 100 µM | UO-31 > 100 µM | M14 > 100 µM | A498 > 100 µM | EKVX > 100 µM | U-251 > 100 µM | CAKI-1 > 100 µM | 786-0 > 100 µM | SNB-75 > 100 µM | HL-60 62.1 µM | SW-620 > 100 µM | HOP-92 > 100 µM | SK-OV-3 > 100 µM | HCT-116 > 100 µM | ACHN > 100 µM | MDA-MB-231 > 100 µM | NCI-H226 > 100 µM | OVCAR-4 > 100 µM

CCC(C)[C@H]1C(=O)N=C(N)N1C(=O)OCc1ccccc1 (stereo not given in full)
inactive: SF-268 > 100 µM | UO-31 78 µM | A498 > 100 µM | EKVX > 100 µM | U-251 > 100 µM | CAKI-1 > 100 µM | 786-0 > 100 µM | SNB-75 > 100 µM | HL-60 > 100 µM | SW-620 > 100 µM | SR > 100 µM | HCT-116 > 100 µM | ACHN > 100 µM | MDA-MB-231 > 100 µM | NCI-H226 > 100 µM | OVCAR-4 > 100 µM
